Test results reported in patent US6706506B2, “Detection of epithelial cell cancers and precancerous conditions” (priority 2000, dated 2004).

Legend:
[1] = test system: normal epithelial cell strains HMEC, ADO74, NHEK, OKP-7; assay: [^3H]retinol esterification in normal epithelial cell strains; format: cell-based, human; conditions: 50 nM [^3H]retinol in the medium
Procedure: (§1) All retinoid solutions and samples were handled under red or dim light. […] A separate control consisting of labeling medium without cells was included during the incubation period. Cells and one-fourth of the media were collected. Cells were washed once with 0.5 ml of phosphate-buffered saline (PBS) and removed from the monolayer in 0.5 ml PBS by scraping. Samples were stored at −70° C. until retinoid extraction. The cell numbers were counted from parallel dishes from each treatment at the time of cell harvest. The retinoids were extracted as described previously (McLean, et al. Clin. Chem. 1982, 28:693-696). Non-radiolabeled retinoid standards were added to the samples prior to extraction. Briefly, 350 μl acetonitrile/butanol (50:50, v/v), 0.1% butylated hydroxytoluene (BHT) was added to 0.5 ml of cells or medium samples. The mixtures were vortexed thoroughly for 30 sec. After addition of 300 μl of a saturated (1.3 kg/liter) K2HPO4 solution and thorough mixing, the samples were centrifuged for 10 min at 3000 g. […] The HPLC analysis was performed using a Waters Millenium system (Waters Corp.) to separate the various retinoids. […] Non-radiolabeled retinoid standards were run concurrently and monitored at a wavelength of 340 nm while a Packard A-500 radiochromatography detector (Packard Instruments, Downers Grove, Ill.) was used to monitor the labeled retinoids. […]

[2] = test system: normal human epidermal keratinocytes (NHEK); assay: [^3H]retinol esterification in NHEK; format: cell-based; conditions: 15 h culture
Procedure: as §1

[3] = test system: SCC-40 squamous cell carcinoma line; assay: [^3H]retinol pulse chase in SCC-40; format: cell-based, human
Procedure: (§2) For the pulse chase experiments, the cells were cultured for 24 h in 100 nM [^3H]retinol. Cells were then rinsed three times with warm PBS over a 30 minute period, and then incubated in growth medium without [^3H]retinol for an additional one to eight days. At various times following the removal of [^3H]retinol from the medium, dishes of cells were harvested and retinoids were extracted and subjected to HPLC analysis.
(§3) The retinoids were extracted as described previously (McLean, et al. Clin. Chem. 1982, 28:693-696). Non-radiolabeled retinoid standards were added to the samples prior to extraction. […]
(§4) The HPLC analysis was performed using a Waters Millenium system (Waters Corp.) to separate the various retinoids. […] Non-radiolabeled retinoid standards were run concurrently and monitored at a wavelength of 340 nm while a Packard A-500 radiochromatography detector (Packard Instruments, Downers Grove, Ill.) was used to monitor the labeled retinoids. […]
(§5) Therefore, in this series of experiments the cells were cultured in the presence of 100 nM [^3H]retinol and 900 nM retinol in the medium for 24 h, followed by the removal of the [^3H]retinol from the medium. The cells were washed several times, and then dishes of cells were harvested at various times following the removal of [^3H]retinol from the medium, retinoids were extracted from the cells, and the [^3H]retinoids were analyzed by HPLC.

[4] = test system: normal human bronchial epithelial cells (NHBE); assay: [^3H]retinol esterification in NHBE; format: cell-based; conditions: 15 h culture
Procedure: as §1

[5] = test system: SCC-12 skin squamous carcinoma line; assay: [^3H]retinol esterification in SCC-12; format: cell-based, human; conditions: SCC-12, 22 h culture, 50 nM
Procedure: (§6) The retinoids were extracted as described previously (McLean, et al. Clin. Chem. 1982, 28:693-696). Non-radiolabeled retinoid standards were added to the samples prior to extraction. Briefly, 350 μl acetonitrile/butanol (50:50, v/v), 0.1% butylated hydroxytoluene (BHT) was added to 0.5 ml of cells or medium samples. The mixtures were vortexed thoroughly for 30 sec. After addition of 300 μl of a saturated (1.3 kg/liter) K2HPO4 solution and thorough mixing, the samples were centrifuged for 10 min at 3000 g. The upper organic layer was collected and transferred to an injector vial for automated HPLC analysis.
The HPLC analysis was performed using a Waters Millenium system (Waters Corp.) to separate the various retinoids. Samples were applied to an analytical 5 μm reverse-phase C18 column (Vydac, Hesperia, Calif.) at a flow rate of 1.5 ml/min. The gradient consisted of a 35 min linear gradient from 15 mM ammonium acetate, pH 6.5, in water to 85% acetonitrile in a 10 min linear gradient from 85% acetonitrile to acetonitrile-dichloromethane (80:20) followed by a 15 min hold. Non-radiolabeled retinoid standards were run concurrently and monitored at a wavelength of 340 nm while a Packard A-500 radiochromatography detector (Packard Instruments, Downers Grove, Ill.) was used to monitor the labeled retinoids. […]

[6] = test system: MCF-7 breast carcinoma cell line; assay: [^3H]retinol esterification in MCF-7; format: cell-based, human; conditions: MCF-7, 22 h culture, 50 nM
Procedure: as §1

[7] = test system: fibroblast cell strains GM0970 and CCD42-SK; assay: [^3H]retinol metabolism in normal fibroblast cell strains; format: cell-based, human; conditions: 15-24 h culture in the presence of [^3H]retinol
Procedure: as §1

[8] = test system: SCC-40 carcinoma line from the soft palate; assay: [^3H]retinol esterification in SCC-40; format: cell-based, human; conditions: SCC-40, 22 h exposure, 50 nM
Procedure: as §1

ADO74 cells = assay: [^3H]retinol pulse chase in ADO74; format: cell-based, human
Procedure: as §2, §6
(§7) The HPLC analysis was performed using a Waters Millenium system (Waters Corp.) to separate the various retinoids. Samples were applied to an analytical 5 μm reverse-phase C18 column (Vydac, Hesperia, Calif.) at a flow rate of 1.5 ml/min. […] Non-radiolabeled retinoid standards were run concurrently and monitored at a wavelength of 340 nm while a Packard A-500 radiochromatography detector (Packard Instruments, Downers Grove, Ill.) was used to monitor the labeled retinoids. […]
as §5

[9] = test system: MDA-MB-231 breast carcinoma line; assay: [^3H]retinol pulse chase in MDA-MB-231; format: cell-based, human
Procedure: as §2, §3, §4, §5

[10] = test system: human umbilical vein endothelial cells (HUVEC); assay: [^3H]retinol metabolism in HUVEC; format: cell-based; conditions: 15 h culture, 50 nM [^3H]retinol
Procedure: as §1

OKP-7 cells = assay: [^3H]retinol pulse chase in OKP-7; format: cell-based, human
Procedure: as §2, §6, §7, §5

[11] = test system: RA hydroxylase (CYP26) gene; assay: Northern blot analysis of RA hydroxylase (CYP26) gene in other tumor lines and normal cell strains; format: cell-based, human; conditions: other tumor lines or normal cell strains cultured with or without RA
Description: (§8) Total cellular RNA was isolated from cultured cells using RNA Stat-60 according to the manufacturer's instruction (Tel-Test, Friendswood, Tex.). RNA was electrophoretically fractionated by size on 1% agarose/2.2 M formaldehyde gels, transferred to nylon filters by blotting, and attached to the filters using a UV Stratalinker 1800. The cDNA probes used in this analysis were radiolabeled with [^32P]dCTP using a random primer labeling kit (Boehringer Mannheim, Indianapolis, Ind.) according to the manufacturer's directions. Glyceraldehyde phosphate dehydrogenase cDNA was used as a probe for Northern blots as described previously (Guo, et al. Cancer Res. 1998, 58:166-176; Chen, et al. J. Biol. Chem. 1996, 271:14971-14980). AHD-2 cDNA, isolated from a murine liver cDNA library by this laboratory (Chen, Mol. Pharm. 1994, 46:88-96), was used as a probe; this cDNA encodes an aldehyde dehydrogenase class I enzyme, also called ALDH-1 in human. The human LRAT cDNA clone was an Eco RI fragment (840 bp) as described (Ruiz, et al. J. Biol. Chem. 1999, 274:3834-3841). The human neutral, bile salt independent retinyl ester hydrolase and the hepatic, bile sale dependent retinyl ester hydrolase were EST clones #g4069398 and #g2237729, respectively, from Genome Systems (St. Louis, Mo.). […]

[12] = test system: RA hydroxylase (CYP26) gene; assay: Northern blot analysis of RA hydroxylase (CYP26) gene in MCF-7; format: cell-based, human; conditions: MCF-7 following retinoic acid addition
Description: as §8

LRAT mRNA = assay: Northern blot analysis of LRAT transcripts after culture with retinoic acid; format: cell-based, human; conditions: 1 μM retinoic acid for 48 h; HUVEC, CCD42-SK, GM0970, HMEC, HNBE, NT2
Description: as §8

[13] = ADO74, four to eight days after [^3H]retinol removal
[14] = OKP-7, four to eight days after [^3H]retinol removal

Compound: [^3H]retinol
- time by which all of the [^3H]retinol in the medium had been esterified [1]: 6 to 8 h
- esterification of [^3H]retinol to retinyl esters [2]: extensive esterification
- time after removal by which no [^3H]retinol is detectable intracellularly ([3]; SCC-40): ≤ 24 h
- retinyl esters at the time of [^3H]retinol removal ([3]; SCC-40, day 0): no detectable retinyl esters
- esterification of [^3H]retinol to retinyl esters [4]: extensive esterification
- [^3H]retinol esterification [5]: some [^3H]retinol esterification
- [^3H]retinol esterification [6]: did not exhibit [^3H]retinol esterification
- retinol metabolism [7]: Essentially no retinol metabolism occurred
- [^3H]retinol esterification [8]: did not exhibit any significant [^3H]retinol esterification
- intracellular concentration of [^3H]retinyl esters (ADO74 cells; ADO74, four days after removal of [^3H]retinol, 100 nM [^3H]retinol and 900 nM retinol for 24 h): ~30 µM
- intracellular concentration of [^3H]retinoic acid (ADO74 cells; [13]): 1 to 2 µM
- intracellular concentration of [^3H]retinol (ADO74 cells; [13]): 3 to 10 µM
- time after removal by which no [^3H]retinol is detectable intracellularly ([9]; MDA-MB-231): ≤ 24 h
- retinyl esters at the time of [^3H]retinol removal ([9]; MDA-MB-231, day 0): no detectable retinyl esters
- retinyl esters found [10]: only trace amounts of retinyl esters were found
- intracellular concentration of [^3H]retinyl esters (OKP-7 cells; OKP-7, four days after removal of [^3H]retinol, 100 nM [^3H]retinol and 900 nM retinol for 24 h): approximately 26 μM
- intracellular concentration of [^3H]retinoic acid (OKP-7 cells; [14]): 1 to 2 µM
- intracellular concentration of [^3H]retinol (OKP-7 cells; [14]): 3 to 10 µM

Compound: CC1=C(/C=C/C(C)=C/C=C/C(C)=C/C(=O)O)C(C)(C)CCC1 [retinoic acid, all-trans retinoic acid]
- expression of RA hydroxylase (CYP26) gene [11]: not expressed at detectable levels
- expression of RA hydroxylase (CYP26) gene [12]: strongly expressed
- effect on levels of LRAT mRNA (LRAT mRNA): a slight increase in LRAT mRNA
